This is an account of results in publication PMC2666795, “Bacterial Genome Partitioning: N-Terminal Domain of IncC Protein Encoded by Broad-Host-Range Plasmid RK2 Modulates Oligomerisation and DNA Binding” (Journal of Molecular Biology, 2009).

The target of data set [1] is T1, IncC2 (Escherichia coli, UniProt P07673).
T1 construct: gene incC; short form 259 aa (IncC1 without residues 1-105), His6-tagged from modified pET28a (pGBT343), expressed in E. coli BL21, nickel-agarose; thrombin cleavage of tag described
T1 sequence (P07673 106-364): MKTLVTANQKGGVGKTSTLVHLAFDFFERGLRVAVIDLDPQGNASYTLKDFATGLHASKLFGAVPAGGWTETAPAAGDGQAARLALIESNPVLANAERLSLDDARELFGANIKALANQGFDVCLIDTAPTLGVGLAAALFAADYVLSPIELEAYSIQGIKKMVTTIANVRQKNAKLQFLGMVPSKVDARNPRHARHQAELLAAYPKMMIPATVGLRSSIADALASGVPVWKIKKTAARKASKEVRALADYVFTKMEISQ
Kind of data set: glutaraldehyde cross-linking with the IncC1 N-terminal domain. As to conditions: 2 mM ADP, 10 mM MgCl2, 25 mM phosphate pH 7.5; nucleotide-dependent binding of NTD to IncC2.

Data set [2] addresses T2, IncC1 (Escherichia coli, UniProt P07673).
T2 construct: gene incC; full-length 364 aa, His6-tagged from modified pET28a (pGBT342), expressed in E. coli BL21, nickel-agarose; thrombin cleavage of tag described; monomer 40 kDa, dimer 80 kDa with ATP
T2 sequence (P07673 1-364): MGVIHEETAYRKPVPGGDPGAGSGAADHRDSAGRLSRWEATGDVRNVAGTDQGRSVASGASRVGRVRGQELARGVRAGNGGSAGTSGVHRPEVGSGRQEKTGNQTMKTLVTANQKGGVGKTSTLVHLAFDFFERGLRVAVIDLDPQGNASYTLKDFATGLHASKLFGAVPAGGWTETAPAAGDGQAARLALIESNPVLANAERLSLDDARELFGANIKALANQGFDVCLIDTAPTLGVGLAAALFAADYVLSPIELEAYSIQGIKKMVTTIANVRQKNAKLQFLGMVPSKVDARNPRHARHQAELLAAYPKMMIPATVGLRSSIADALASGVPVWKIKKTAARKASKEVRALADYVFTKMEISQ
Description: velocity sedimentation (analytical ultracentrifugation), dimer formation. The format is binding. Particulars: read-out: Kapp.

The target in data set [3] is T3, IncC2 (259 aa), short ParA protein made from the second translational start of incC of plasmid RK2 (plasmid RK2 (IncP-1), UniProt P07673 106-364).
T3 construct: IncC2, the product of the second translational start of incC of plasmid RK2, 259 aa; it lacks the N-terminal domain (amino acids 1-105) of IncC1; numbers count on IncC1; also called His6-IncC2; source: E. coli BL21 (printed: C600 BL21), modified pET28a vector, purified (nickel-agarose)
T3 sequence (looked up): T1 sequence (P07673 106-364)
Kind of data set: cross-linking; glutaraldehyde 0-0.1%, with 2 mM ATP; 5 μg of each protein in 50 μl, 10 mM MgCl2, 25 mM phosphate buffer pH 7.5; 30 min 37 °C, then 30 min 30 °C with glutaraldehyde; SDS-PAGE, Western blot with anti-IncC. Particulars: both partners purified.

Data set [4] concerns the molecule itself. Description: AUC; velocity sedimentation, 30 μM IncC1 with varying ATP concentrations, with magnesium; 50 mM sodium phosphate pH 8.0, 100 mM NaCl, 40,000 rpm, 4 °C.

Turning to `Nc1ncnc2c1ncn2[C@@H]1O[C@H](COP(=O)(O)OP(=O)(O)O)[C@@H](O)[C@H]1O` [ADP], the “glutaraldehyde cross-linking with the IncC1 N-terminal domain” value in data set [1] was “In the presence of either ATP or ADP, the NTD was found to interact with IncC2”. Further, in data set [2], the Kd was 54 µM. On to `Nc1ncnc2c1ncn2[C@@H]1O[C@H](COP(=O)(O)OP(=O)(O)OP(=O)(O)O)[C@@H](O)[C@H]1O` [ATP], for which the Kd in data set [2] worked out at 7.7 µM.

B1: N-terminal domain of IncC1 (amino acids 1-105) (domain or fragment, plasmid RK2 (IncP-1), UniProt P07673 1-105, looked up)
chain: MGVIHEETAYRKPVPGGDPGAGSGAADHRDSAGRLSRWEATGDVRNVAGTDQGRSVASGASRVGRVRGQELARGVRAGNGGSAGTSGVHRPEVGSGRQEKTGNQT
notes: N-terminal domain of IncC1 of plasmid RK2, amino acids 1-105, 11 kDa; also called NTD; IncC1 NTD; source: E. coli, expressed from pSMB315 (pGBT340 with incC1-NTD), purified
Regarding B1, the binding result in data set [3] is “binds”.

B2: IncC1 (364 aa), long ParA protein encoded by incC of broad-host-range plasmid RK2 (natural protein, plasmid RK2 (IncP-1), UniProt P07673 1-364, looked up)
chain: T2 sequence (P07673 1-364)
notes: IncC1, the product of the first translational start of incC (parA) of IncP-1 plasmid RK2, 364 aa; also called His6-IncC1; His-IncC1; source: E. coli BL21 (printed: C600 BL21), modified pET28a vector, purified (nickel-agarose)
As a reminder, the stoichiometry N is a count of units in the complex or per binding partner. On to B2, for which the “stoichiometry N” value in data set [4] worked out at 2.
